The record followed here is patent US20030157516A1, “G protein coupled receptor” (priority 2000, published 2003).

One test has as its system wild type CHO cells. As to the kind of experiment: [3H]adenine competition binding on wild type CHO membranes. The following applies: 15 nM [3H]adenine. How it is done: The membranes were prepared as total particulate fractions. […] The culturing medium was removed and the cells were washed twice with ice cold phosphate buffered saline (PBS without Ca^2+ and Mg^2+), scraped from the plates in 50 mM Tris-HCl buffer, pH 7.4, and collected by centrifugation (10 minutes at 16,000 RPM at 4° C.). The cell pellet was re-suspended in hypotonic 5 mM Tris-HCl buffer, pH 7.4, and homogenized with an Ultra Turrax homogenizer (Janker Kunkel, Germany). The homogenate was centrifuged at 18,000 RPM for 20 minutes at 4° C. The final pellet was re-suspended in 50 mM Tris-HCl buffer, pH 7.4 and stored in aliquots at −70° C. A protein determination was performed using the Bradford protein assay (Biorad, Germany) using bovine serum albumin (BSA) as standard.
Membranes were thawed on ice and diluted in 50 mM HEPES buffer, pH 7.4 supplemented with 10 mM MgCl2 and 1 mM EGTA. […] Both assays were carried out in a final volume of 500 μl, using 18 μg of membrane protein for the transfected CHO cells and 30 μg of membrane protein for the wild type CHO cells for the saturation binding. For competition binding experiments, 15 and 50 μg of membrane protein was used for the transfected and wild type cells, respectively. The reaction was terminated by rapid filtration through Whatman GF/B filters using a Brandel multi-channel cell harvester (96 wells). The filters were washed three times with 3 ml ice cold 50 mM HEPES buffer, pH 7.4, transferred to liquid scintillation vials and 3 ml of scintillation fluid (Ultima Gold MV, Packard, Netherlands) was added. Samples were counted in a β-scintillation counter after at least 6 hours to permit the glass fiber filters to become uniformly translucent.

Test [1] concerns the target T1, adenine binding rat receptor (Rattus norvegicus, UniProt Q7TN49).
T1 construct: expressed in transfected cells; host or cells: CHO cells, transient, lipofectamine PLUS
T1 sequence (Q7TN49 1-304): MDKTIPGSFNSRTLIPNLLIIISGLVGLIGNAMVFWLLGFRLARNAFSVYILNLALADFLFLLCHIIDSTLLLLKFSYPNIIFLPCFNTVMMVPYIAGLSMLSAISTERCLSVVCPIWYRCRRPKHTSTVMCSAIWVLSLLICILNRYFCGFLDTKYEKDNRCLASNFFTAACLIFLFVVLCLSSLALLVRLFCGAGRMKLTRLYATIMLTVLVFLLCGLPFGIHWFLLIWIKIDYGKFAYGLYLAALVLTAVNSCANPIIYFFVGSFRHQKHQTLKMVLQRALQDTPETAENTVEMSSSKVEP
As to the kind of experiment: cAMP measurements on CHO cells transiently transfected (forskolin stimulated). Format: cell-based. To be noted: inhibition of forskolin stimulated cAMP. On the procedure:
a) Methods—For transiently transfected CHO cells, cAMP measurements were performed using the direct RIA kit from NEN (Belgium).
The cells were collected from 50 mm petri dishes by adding 1 ml 0.04% EDTA and re-suspending them in PBS (without Ca^2+ and Mg^2+). The cells were then centrifuged for 5 minutes at 1,500 RPM, the supernatant was removed and the pellet was re-suspended in stimulation buffer (provided by the supplier, NEN). The cells were counted and 50 μl was added to each well of a 96-well flashplate at a density of 10^6 cells/well. A standard curve of cAMP was prepared in stimulation buffer, covering a range from 10 to 1,000 nM, and 50 μl was added to the flashplate.
The compounds were diluted in PBS with forskolin (at 50 μM), and 50 μl of the ligand, 2 times the final concentration, was added to the cells and incubated for 20 minutes at 37° C. After the 20 minutes incubation, 100 μl of the [^125I]cAMP tracer (2 μCi) was added to each well, resulting in a final volume of 200 μl/well. The plate was left at room temperature, until being counted in the Topcount™ microplate scintillation counter (Packard, Netherlands). The sigmoid concentration response curves (duplicate points) were analyzed using the GraphPad Prism program (GraphPad Software, Calif., USA).
a) Methods: Two days before the experiment the cells were seeded out in a 96 well plate at a density required for approximately 90% confluence at the day of the experiment. After removal of the growth medium, the cells were washed twice with a controlled salt solution (CSS) containing 25 mM Tris-HCl, pH 7.4, 120 mM NaCl, 5.4 mM KCl, 0.8 mM MgCl2, 1.8 mM CaCl2, 15 mM glucose and 15 mg/l phenol red, with an addition of a phosphodiesterase inhibitor IBMX (3-isobutyl-1-methylxanthine) in a concentration of 1 mM and […]. Basal cAMP levels were determined in CSS containing these additives and maximally stimulated cAMP levels were determined in the presence of 50 μM forskolin. For testing agonistic activity, the compounds were incubated with the cells for 20 minutes at 37° C. The reaction was stopped by addition of ice cold HClO4 (1N) and stored at −20° C. After thawing the mixtures were neutralized with an equivalent amount of phosphate buffered KOH, left at 4° C. during 30 minutes to allow the salts to precipitate and centrifuged at 2,000 RPM for 5 minutes at 4° C.
For the quantitative determination of the cAMP levels, a 96-well Flashplate radioimmunoassay kit from NEN was used, according to the protocol of the supplier. The sigmoid concentration response curves (duplicate points) were analyzed using the GraphPad Prism program.

Setting [2] is: direct assay, 0.5% hiFCS, read-out: pEC50 (converted).
Setting [3] is: direct assay, 2% hiFCS, read-out: pEC50 (converted).
[4] abbreviates: indirect assay, 0.5% hiFCS, read-out: pEC50 (converted).

Read-outs that look alike come from different tables or passages of the source.

One may read the pIC50 as −log10 of the IC50, conventionally taken in molar units. Low readings indicate a high IC50, high ones a low IC50. As to `Cn1cnc2ncnc-2c1N` [1-Methyladenine], the pIC50 in the test on wild type CHO cells (mean of n experiments) and in the test with wild type CHO cells (single experiments) was less than 4 in each case. Further, the results for the EC50 in test [1] (setting [2]), in test [1] (setting [3]) and in test [1] (setting [4]) were 4900 nM, 6310 nM and 7940 nM, respectively. The pEC50 entry in test [1] (indirect assay, 2% hiFCS) is “no fit”.
`Nc1ncnc2c1ncn2[C@@H]1O[C@H](COP(=O)(O)O)[C@@H](O)[C@H]1O` [AMP]: the pIC50 in the test with wild type CHO cells (mean of n experiments) and in the test on wild type CHO cells (single experiments) was less than 4 throughout.
The Ki is the dissociation constant of the complex between target and ligand, obtained from inhibition or displacement. Molecule `Nc1ncnc2nc[nH]c12` [Adenine, adenine] yielded a Ki with wild type CHO cells (mean of n experiments) of 85 nM. In the test with wild type CHO cells (mean of n experiments), this molecule gave a negative-log IC50 (pIC50) of 6.87. Further, the EC50 was 20.9 nM in test [1] (setting [2]); 7.08 nM in test [1] (setting [3]); 3.31 nM in test [1] (setting [4]); 110 nM in test [1] (indirect assay, 2% hiFCS, read-out: pEC50 (converted)); approximately 15 nM in test [1] (transiently transfected cells, read-out: EC50).
